According to patent publication US20090203783A1, “THERAPEUTIC AGENT FOR ACUTE CEREBRAL INFARCT” (ONO PHARMACEUTICAL CO., LTD., priority 2005, published 2009):

Experiments:
Assay type in all cases: in vivo, human
[1] = system: patients of acute cerebral infarction; assay: Example 1 clinical trial, modified Rankin Scale (mRS); settings: 10 mg/kg/hr iv, 5 days, after 3 months, administration 5.5 to 6 hours from onset
Protocol: (§1) As a clinical trial, a double blind placebo-controlled parallel group study was carried out under the following conditions with patients of acute cerebral infarction as the object.
(c) A patient who undergoes randomization by the study within 6 hours from the first infarction symptom and undergoes the first administration by the blind test (When the patient awoke under an infarction symptom which was not observed before sleeping, start of the infarction symptom is regarded as the started time of sleeping. When the started time is not clear, start of the infarction symptom is regarded as the time when the patient was lastly normal.);
(f) A patient defined as a score of from 11 to 22 on NIH Stroke Scale, within 1 hour before the first administration;
(§2) A total of 5 times for one hour intravenous continuous administration at intervals of about 24 hours in each group (administration period: 5 days).
(§3) Evaluation method: Symptoms of patients were evaluated in accordance with the aforementioned list of marks of NIH Stroke Scale, about 1 month after or about 3 months after the commencement of administration. (2) Modified Rankin Scale (mRS) Evaluation method: Symptoms of patients were scored by classifying the symptoms of patients into the following grades of from 0 to 5, about 1 month after or about 3 months after the commencement of administration. 0: No symptoms at all. 1: No significant disability despite symptoms; able to carry out all usual duties and activities. 2: Slight disability; unable to carry out all previous activities, but able to look after own affairs without assistance. 3: Moderate disability; requiring some help, but able to walk without assistance. 4: Moderately severe disability; unable to walk without assistance and unable to attend to own bodily needs without assistance. 5: Severe disability; bedridden, incontinent and requiring constant nursing care and attention.

[2] = system: patients of acute cerebral infarction; assay: Example 1 clinical trial, Stroke Impact Scale (SIS) items 1a-1d, 4a; settings: about 3 months, 5 hours or more from onset
Protocol: as §1, §2
Based on the results of the above-mentioned efficacy evaluation items and safety evaluation items, therapeutic effect of the intravenous continuous administration of (2R)-2-propyloctanoic acid to cerebral infarction patients was evaluated. Additionally, in order to examine the therapeutic effect more in detail, improving effect of the intravenous continuous administration of (2R)-2-propyloctanoic acid for each of (a) [Arm strength], (b) [Grip], (c) strength of the legs [Leg], (d) strength of the ahead of the ankle [Ankle/foot], and (e) language [Naming] was evaluated after about 3 months from the commencement of administration, using the items 1a, 1b, 1c, Id and 4a of the Stroke Impact Scale (SIS). In this connection, the Stroke Impact Scale is a conventionally known evaluation method and can be obtained from an internet <URL: www.chrp.org/, www.strokecenter.org, www2.kumc.edu/coa/> and the like. Specifically, the evaluation of 1a, 1b, 1c and id is carried out by a mode of selecting any one of the answers, A lot of strength, Quite a bit of strength, Some strength, A little strength and No strength at all, for the following questions
and five scores, four scores, 3 scores, 2 scores and 1 score are given in response to the respective answers.
Additionally, the evaluation of 4a is carried out by a mode of selecting any one of the answers, Not difficult at all, A little difficult, Somewhat difficult and Very difficult and Extremely difficult, for the following questions
In this case, the group P represents a placebo administration group, and the group L represents a (2R)-2-propyloctanoic acid 4 mg/kg/hr administration group, and the group H represents a (2R)-2-propyloctanoic acid 10 mg/kg/hr administration group. The evaluation result of each item was shown by a form of “(the number of patients having an evaluation score of 4 or more)/(the number of patients evaluated)”.

[3] = system: patients of acute cerebral infarction; assay: Example 1 clinical trial, safety (adverse events); settings: 4 or 10 mg/kg/hr iv, 5 days
Protocol: as §1, §2
(§4) Frequency of adverse event and contents thereof (symptom, causal relation and the like)

[4] = system: patients of acute cerebral infarction; assay: Example 2 clinical trial, modified Rankin Scale (mRS); settings: 7 days
Protocol: as §3
(§5) As a clinical trial, a double blind placebo-controlled parallel group study was carried out under the following conditions using patients of acute cerebral infarction as the object.
(e) A patient whose period of time from the onset of cerebral infarction until commencement of administration is 72 hour or less;
(§6) A total of 7 times for one hour intravenous continuous administration at intervals of about 24 hours in each group (administration period: 7 days).
(§7) Symptoms of patients were evaluated after about 1 month or after about 3 months from the commencement of the administration, in accordance with the methods described in the aforementioned [EFFICACY EVALUATION ITEMS] of Example 1.

[5] = system: patients of acute cerebral infarction; assay: Example 2 clinical trial, safety (adverse events); settings: 0.4, 4 or 8 mg/kg/hr iv, 7 days
Protocol: as §5, §6, §4

[6] = system: patients of acute cerebral infarction; assay: Example 3 clinical trial, efficacy evaluation items; settings: 7 days
Protocol: as §5, §6, §7

[7] = system: patients of acute cerebral infarction; assay: Example 3 clinical trial, safety (adverse events); settings: 8 or 12 mg/kg/hr iv, 7 days
Protocol: as §5, §6, §4

CCCCCC[C@@H](CCC)C(=O)O [(2R)-2-propyloctanoic acid]
ratio of the number of patients whose mRS scores became 0 to 3 [1]: 31.5%
ratio of the number of patients whose mRS scores became 0 to 3 ([1]; patients of less than 80 years, NIH Stroke Scale 11 to 18): 46.0%
ratio of the number of patients whose mRS scores became 0 to 3 ([1]; patients of less than 80 years): 39.0%
SIS Ankle/foot: (number of patients having an evaluation score of 4 or more)/(number of patients evaluated) ([2]; Group H, 10 mg/kg/hr): 60/100
SIS Ankle/foot: ratio of patients with evaluation score of 4 or more ([2]; Group H, 10 mg/kg/hr): (60%)
SIS Arm strength: (number of patients having an evaluation score of 4 or more)/(number of patients evaluated) ([2]; Group H, 10 mg/kg/hr): 44/100
SIS Arm strength: ratio of patients with evaluation score of 4 or more ([2]; Group H, 10 mg/kg/hr): (44%)
SIS Grip: (number of patients having an evaluation score of 4 or more)/(number of patients evaluated) ([2]; Group H, 10 mg/kg/hr): 46/100
SIS Grip: ratio of patients with evaluation score of 4 or more ([2]; Group H, 10 mg/kg/hr): (46%)
SIS Leg: (number of patients having an evaluation score of 4 or more)/(number of patients evaluated) ([2]; Group H, 10 mg/kg/hr): 59/100
SIS Leg: ratio of patients with evaluation score of 4 or more ([2]; Group H, 10 mg/kg/hr): (59%)
SIS Naming: (number of patients having an evaluation score of 4 or more)/(number of patients evaluated) ([2]; Group H, 10 mg/kg/hr): 65/100
SIS Naming: ratio of patients with evaluation score of 4 or more ([2]; Group H, 10 mg/kg/hr): (65%)
SIS Ankle/foot: (number of patients having an evaluation score of 4 or more)/(number of patients evaluated) ([2]; Group L, 4 mg/kg/hr): 39/88
SIS Ankle/foot: ratio of patients with evaluation score of 4 or more ([2]; Group L, 4 mg/kg/hr): (44%)
SIS Arm strength: (number of patients having an evaluation score of 4 or more)/(number of patients evaluated) ([2]; Group L, 4 mg/kg/hr): 34/88
SIS Arm strength: ratio of patients with evaluation score of 4 or more ([2]; Group L, 4 mg/kg/hr): (39%)
SIS Grip: (number of patients having an evaluation score of 4 or more)/(number of patients evaluated) ([2]; Group L, 4 mg/kg/hr): 36/88
SIS Grip: ratio of patients with evaluation score of 4 or more ([2]; Group L, 4 mg/kg/hr): (41%)
SIS Leg: (number of patients having an evaluation score of 4 or more)/(number of patients evaluated) ([2]; Group L, 4 mg/kg/hr): 46/88
SIS Leg: ratio of patients with evaluation score of 4 or more ([2]; Group L, 4 mg/kg/hr): (52%)
SIS Naming: (number of patients having an evaluation score of 4 or more)/(number of patients evaluated) ([2]; Group L, 4 mg/kg/hr): 58/88
SIS Naming: ratio of patients with evaluation score of 4 or more ([2]; Group L, 4 mg/kg/hr): (66%)
severe adverse events having a different frequency between drug group and placebo group [3]: not found
side effect in which its frequency increases depending on the dose [3]: not found
ratio of mRS occupying 0 to 2 ([4]; 0.4 mg/kg/hr iv, after 3 months, JCS I-1 to I-3 and NIH Stroke Scale 7 or more): 48.1%
ratio of mRS occupying 0 to 2 ([4]; 4 mg/kg/hr iv, after 3 months, JCS I-1 to I-3 and NIH Stroke Scale 7 or more): 47.9%
ratio of mRS occupying 0 to 2 ([4]; 8 mg/kg/hr iv, after 1 month): 45.7%
ratio of mRS occupying 0 to 2 ([4]; 8 mg/kg/hr iv, after 3 months): 58.1%
ratio of mRS occupying 0 to 2 ([4]; 8 mg/kg/hr iv, after 3 months, JCS I-1 to I-3 and NIH Stroke Scale 7 or more): 63.0%
ratio of mRS occupying 0 to 2 ([4]; 8 mg/kg/hr iv, after 3 months, patients with JCS I-1 to I-3 before administration): 69.1%
severe adverse event having a different frequency between drug group and placebo group [5]: not found
side effect in which its frequency increases depending on the dose [5]: not found
improving effects of the items shown in the efficacy evaluation items ([6]; 8 mg/kg/hr iv): excellent improving effects
improving effects of the items shown in the efficacy evaluation items ([6]; 12 mg/kg/hr iv): excellent improving effects
severe adverse event having a different frequency between drug group and placebo group [7]: not found
side effect in which its frequency increases depending on the dose [7]: not found
